# Literature values, collected in patent US20090318627A1, “SOLID PHASE SYNTHESIS OF ACRIDINIUM DERIVATIVES” (Siemens Healthcare Diagnostics Inc., priority 2006, published 2009).
# Conditions: hydrolysis of ester linkage between acridinium ring and phenol
row,Molecule,"hydrolytic stability of the acridinium ester linkage, in words"
1,9-carboxyphenyl-N-methylacridinium bromide,quite unstable
2,"Cc1cc(C(=O)ON2C(=O)CCC2=O)cc(C)c1OC(=O)c1c2ccccc2[n+](C)c2ccccc12 [DMAE-NHS, 2′,6′-dimethyl-4′-(N-succinimidyloxycarbonyl)phenyl-10-methylacridinium-9-carboxylate]",significantly more resistant to hydrolysis
